Measured values as given in article PMC2833169, “Anti-malarial activity of a non-piperidine library of next-generation quinoline methanols” (Malaria Journal, 2010).
Values after ≈ are worked out from the molar mass of the structure shown. Read-outs that look alike come from different tables or passages of the source.

Assays:
[1] = tested on: P. falciparum strain TM90C2A; assay: labeled hypoxanthine susceptibility assay, P. falciparum TM90C2A; assay type: cell-based, Plasmodium falciparum; conditions: for CSI (C2A/W2): ratio of IC90 C2A to IC90 W2
Method: (§1) The in vitro activities of quinoline methanols against P. falciparum strains W2, D6, TM91C235, and TM90C2A were evaluated using the traditional labeled hypoxanthine assay of Desjardins et al as modified by Milhous et al. These four P. falciparum strains were selected since they have various levels of resistance to conventional anti-malarials.

P. falciparum strain W2 = assay: labeled hypoxanthine susceptibility assay, P. falciparum W2; assay type: cell-based, Plasmodium falciparum; conditions: for IC90: Plasmodium falciparum
Method: as §1

P. falciparum strain D6 = assay: labeled hypoxanthine susceptibility assay, P. falciparum D6; assay type: cell-based, Plasmodium falciparum; conditions: for IC90: Plasmodium falciparum
Method: as §1

[2] = tested on: rodent macrophage (RAW) cell line; assay: in vitro; conditions: read-out: Macrophage IC50
Method: General cytotoxicity was assessed by first determining LC50 's against a rodent macrophage (RAW) cell line using the 3-(4,5-dimethylthiazole-2-yl)-2,5-diphenyltetrazolium bromide (MTT) assay as described in one of our earlier studies. This screen was conducted to identify compounds that may require de-selection due to generalized toxicity. […] In vitro neurocytotoxicity was assessed by determining LC50s against primary mouse neurons using the MTT assay as described previously. Inhibition of the A2A and A1 receptors was determined at 200 nM in duplicate by Caliper Biosciences (Hanover, Maryland).

[3] = tested on: P. falciparum strain TM91C235; assay: labeled hypoxanthine susceptibility assay, P. falciparum TM91C235; assay type: cell-based, Plasmodium falciparum; conditions: for IC90: Plasmodium falciparum, read-out: PF C235 IC90
Method: as §1

[4] = Plasmodium falciparum, TM90C2A, read-out: IC90 PfC2A
[5] = Plasmodium falciparum, TM90C2A, read-out: PF C2A IC90
[6] = D6, read-out: PF D6 IC90, P. falciparum D6

| SMILES | IC90 [1, 4] [nM] | CSI (C2A/W2) [1] | IC50 ([2]; Mus musculus, Macrophage) [nM] | IC90 [1, 5] [µg/mL] | IC90 (P. falciparum strain W2; W2, read-out: PF W2 IC90) [µg/mL] | IC90 (P. falciparum strain D6; [6]) [µg/mL] | IC90 [3] [µg/mL] | further results |
| --- | --- | --- | --- | --- | --- | --- | --- | --- |
| CCN(CC)CC(O)c1cc(C(F)(F)F)nc2c(C(F)(F)F)cccc12 (racemic) [WR308254] | 176 | – | – | – | – | – | – | – |
| CC(C)N(CC(O)c1cc(C(F)(F)F)nc2c(C(F)(F)F)cccc12)C(C)C (racemic) [WR308277] | 75 | – | – | – | – | – | – | – |
| OC(CNCCC1=CCCCC1)c1cc(C(F)(F)F)nc2c(C(F)(F)F)cccc12 (racemic) [WR308249] | 160 | – | – | – | – | – | – | – |
| OC(CN1CCCC1)c1cc(C(F)(F)F)nc2c(C(F)(F)F)cccc12 (racemic) [compound 308268] | – | 7.7 | – | – | – | – | – | PF W2 IC90 (P. falciparum strain W2; P. falciparum W2): 0.01205 µg/mL; PF D6 IC90 (P. falciparum strain D6; P. falciparum D6): 0.04702 µg/mL; IC50 ([2]; RAW macrophages, range in brackets): 8500 nM; PF C235 IC90 ([3]; P. falciparum TM91C235): 0.04519 µg/mL; PF C2A IC90 ([1]; P. falciparum TM90C2A): 0.09268 µg/mL; IC90 ([1]; calculated from ng/ml IC90 with MW in Column C, read-out: Pf C2A IC90 nM values calculated using MW in Column C): 245 nM |
| OC(c1cc(C(F)(F)F)nc2c(C(F)(F)F)cccc12)C1CCCCN1 (stereo not shown) [142490 (MQ)] | – | 6.5 | 7270 | 0.071 | – | – | – | IC90 (P. falciparum strain W2; P. falciparum W2, read-out: PF W2 IC90): 0.011 µg/mL (≈ 0.0291 µM); IC90 (P. falciparum strain D6; P. falciparum D6, read-out: PF D6 IC90): 0.025 µg/mL (≈ 0.0661 µM); IC90 ([3]; P. falciparum TM91C235): 0.064 µg/mL (≈ 0.169 µM); IC90 ([1]; Plasmodium falciparum, TM90C2A, read-out: Pf C2A IC90 nM values calculated using MW in Column C): 171 nM |
| Cc1ccc(CNCC(O)c2cc(C(F)(F)F)nc3c(C(F)(F)F)cccc23)cc1 (racemic) [WR308375] | 103 | – | – | – | – | – | – | – |
| Cc1ccc(CNCC(O)c2cc(C(F)(F)F)nc3c(C(F)(F)F)cccc23)cc1 (racemic) [compound 308375] | – | 8.4 | > 100000 | 0.044 | 0.00526 (≈ 0.0123 µM) | 0.0392 (≈ 0.0916 µM) | 0.0443 (≈ 0.103 µM) | – |
| OC(CNC1CCCCC1)c1cc(C(F)(F)F)nc2c(C(F)(F)F)cccc12 (racemic) [compound 308248] | – | 10.8 | 19800 | 0.027 | 0.00249 (≈ 0.00613 µM) | 0.00957 (≈ 0.0235 µM) | 0.0144 (≈ 0.0353 µM) | – |
| CCCCN(CCCC)CC(O)c1cc(C(F)(F)F)nc2c(C(F)(F)F)cccc12 (racemic) [compound 176990] | – | 7.9 | 46000 | 0.019 | 0.00239 (≈ 0.00548 µM) | 0.011 (≈ 0.0252 µM) | 0.027 (≈ 0.0619 µM) | – |
| OC(CNCCC1=CCCCC1)c1cc(C(F)(F)F)nc2c(C(F)(F)F)cccc12 (racemic) [compound 308249] | – | 7.8 | 27000 | 0.0693 | 0.00885 (≈ 0.0205 µM) | 0.033 (≈ 0.0762 µM) | 0.0392 (≈ 0.0906 µM) | – |
| CCN(CC)CC(O)c1cc(C(F)(F)F)nc2c(C(F)(F)F)cccc12 (racemic) [compound 308254] | – | 7.4 | 5500 | 0.0669 | 0.00901 (≈ 0.0237 µM) | 0.0264 (≈ 0.0694 µM) | 0.0365 (≈ 0.096 µM) | – |
| CCCCNCC(O)c1cc(C(F)(F)F)nc2c(C(F)(F)F)cccc12 (racemic) [compound 177000] | – | 7.3 | 7800 | 0.0123 | 0.00169 (≈ 0.00444 µM) | 0.00658 (≈ 0.0173 µM) | 0.00891 (≈ 0.0234 µM) | – |
| OC(CNCCc1ccccc1)c1cc(C(F)(F)F)nc2c(C(F)(F)F)cccc12 (racemic) [compound 308253] | – | 9.0 | 22500 | 0.0425 | 0.00472 (≈ 0.011 µM) | 0.0191 (≈ 0.0446 µM) | 0.0229 (≈ 0.0536 µM) | – |
| CCCCN(CCC#N)CC(O)c1cc(C(F)(F)F)nc2c(C(F)(F)F)cccc12 (racemic) [WR308485] | 204 | – | – | – | – | – | – | – |
| OC(CNCCc1ccccc1)c1cc(C(F)(F)F)nc2c(C(F)(F)F)cccc12 (racemic) [WR308253] | 99 | – | – | – | – | – | – | – |
| N#CCCN(CC(O)c1cc(C(F)(F)F)nc2c(C(F)(F)F)cccc12)C1CCCCC1 (racemic) [WR308486] | 144 | – | – | – | – | – | – | – |
| CC(C)N(CC(O)c1cc(C(F)(F)F)nc2c(C(F)(F)F)cccc12)C(C)C (racemic) [compound 308277] | – | 6.7 | 81200 | 0.0305 | 0.00452 (≈ 0.0111 µM) | 0.0195 (≈ 0.0477 µM) | 0.0209 (≈ 0.0512 µM) | – |
| CCCNCC(O)c1cc(C(F)(F)F)nc2c(C(F)(F)F)cccc12 (racemic) [WR183544] | 40 | – | – | – | – | – | – | – |
| OC(CNc1nc2ccccc2[nH]1)c1cc(C(F)(F)F)nc2c(C(F)(F)F)cccc12 (racemic) [compound 308491] | – | 3.8 | 15400 | 0.0835 | 0.0219 (≈ 0.0498 µM) | 0.0482 (≈ 0.11 µM) | 0.0716 (≈ 0.163 µM) | – |
| N#CCCN(CC(O)c1cc(C(F)(F)F)nc2c(C(F)(F)F)cccc12)C1CCCCC1 (racemic) [compound 308486] | – | 12.1 | 18700 | 0.0662 | 0.00549 (≈ 0.0119 µM) | 0.0312 (≈ 0.0678 µM) | 0.0413 (≈ 0.0899 µM) | – |
| OC(CNC1CCCCC1)c1cc(C(F)(F)F)nc2c(C(F)(F)F)cccc12 (racemic) [WR308248] | 66 | – | – | – | – | – | – | – |
| CCCCN(CCC#N)CC(O)c1cc(C(F)(F)F)nc2c(C(F)(F)F)cccc12 (racemic) [compound 308485] | – | 9.5 | 46600 | 0.0883 | 0.00934 (≈ 0.0216 µM) | 0.0604 (≈ 0.139 µM) | 0.059 (≈ 0.136 µM) | – |
| OC(CNc1nc2ccccc2[nH]1)c1cc(C(F)(F)F)nc2c(C(F)(F)F)cccc12 (racemic) [WR308491] | 190 | – | – | – | – | – | – | – |
| CC1CCN(CC(C)(C)NCC(O)c2cc(C(F)(F)F)nc3c(C(F)(F)F)cccc23)CC1 (racemic) [WR308592] | 137 | – | – | – | – | – | – | – |
| CCCCN(CCCC)CC(O)c1cc(C(F)(F)F)nc2c(C(F)(F)F)cccc12 (racemic) [WR176990] | 44 | – | – | – | – | – | – | – |
| CCCNCC(O)c1cc(C(F)(F)F)nc2c(C(F)(F)F)cccc12 (racemic) [compound 183544] | – | 14.5 | – | 0.016 | 0.0011 (≈ 0.003 µM) | 0.0067 (≈ 0.0183 µM) | 0.014 (≈ 0.0382 µM) | – |
| CC1CCN(CC(C)(C)NCC(O)c2cc(C(F)(F)F)nc3c(C(F)(F)F)cccc23)CC1 (racemic) [compound 308592] | – | 14.7 | 38000 | 0.0653 | 0.00445 (≈ 0.00932 µM) | 0.0284 (≈ 0.0594 µM) | 0.0625 (≈ 0.131 µM) | – |
